Consider six compounds from patent US9902725B2, “Heterocyclic derivatives as RORgamma modulators” (GENFIT, priority 2014, dated 2018).

Data set [1] relates to refractory Crohn diseased patients. The following applies: phase IIb; cited from earlier work.
Data set [2] deals with multiple sclerosis model. Particulars: administered by injection; cited from earlier work.
The nature of data set [3]: Microsomal stability, human microsomes (CEREP). In kind it is in vitro ADME. Particulars: 0.1 μM, 0.1 mg/mL microsomal protein. As for the experimental part:
(§1) All the assays were conducted at CEREP (CEREP, France and USA). Metabolic compound stability was tested in human (CEREP, Ref 607) and mouse (CEREP, Ref: 806) microsomes. Inhibition of human drug-metabolizing cytochromes P450 was tested on the five most commonly responsible enzymes of metabolism of xenobiotics, CYP1A2 (CEREP, Ref 389), CYP2C9 (CEREP, Ref 412), CYP2C19 (CEREP, Ref 390), CYP2D6 (CEREP, Ref 1338) and CYP3A4 (CEREP, Ref 391).
(§2) Briefly, the standard conditions for CEREP's stability assays include incubation of test compound at 0.1 μM with human or mouse microsomes for 60 minutes in duplicate. The protein concentration of microsomes is 0.1 mg/mL. The parent compound is detected by HPLC-MS/MS analysis. The quantity of the parent compound that remains intact upon 60 minutes of microsome exposure (% remaining) is calculated by comparing the peak area of the parent compound at 60 minutes of exposure to the time zero.

Data set [4] can be described thus: Microsomal stability, mouse microsomes (CEREP). In kind it is in vitro ADME. The following applies: 0.1 μM, 0.1 mg/mL microsomal protein. The procedure: as §1, §2
Data set [5] concerns the target T1, CYP1A2 (Homo sapiens, UniProt P05177).
T1 sequence (P05177 1-516): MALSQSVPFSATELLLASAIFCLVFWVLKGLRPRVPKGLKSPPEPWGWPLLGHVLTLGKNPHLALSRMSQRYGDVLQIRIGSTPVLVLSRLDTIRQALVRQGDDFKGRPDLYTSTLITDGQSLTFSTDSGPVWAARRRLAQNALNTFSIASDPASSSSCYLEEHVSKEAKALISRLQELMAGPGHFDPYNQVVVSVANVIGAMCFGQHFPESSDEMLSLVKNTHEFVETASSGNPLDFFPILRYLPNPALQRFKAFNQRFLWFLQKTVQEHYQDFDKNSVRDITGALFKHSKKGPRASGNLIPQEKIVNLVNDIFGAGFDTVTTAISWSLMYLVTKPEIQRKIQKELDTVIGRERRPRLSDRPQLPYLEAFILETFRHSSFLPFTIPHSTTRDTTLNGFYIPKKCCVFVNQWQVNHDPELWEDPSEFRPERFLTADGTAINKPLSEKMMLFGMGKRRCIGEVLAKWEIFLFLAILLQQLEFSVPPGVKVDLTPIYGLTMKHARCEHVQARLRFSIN
Description: CYP inhibition CYP1A2 (CEREP). The data set is classed as in vitro ADME. Particulars: human recombinant CYP, single concentration (typically 10 μM). The procedure:
as §1
(§3) Briefly, CEREP's CYP inhibition assay uses traditional probe substrates, which are specific to individual CYP isoforms. 3-cyano-7-ethoxycoumarin is mainly catalyzed by CYP1A2 and CYP2C19, 3-[2-(N,N-diethyl-N-methylammonium)ethyl]-7-methoxy-4-methylcoumarin for CYP2C9 and CYP2D6 and finally, 7-benzyloxy-4-trifluoromethylcoumarin is pathway catalyzed predominantly by CYP3A4. The inhibition assays were performed with human recombinant CYP isoforms preparations. HPLC MS/MS methods are used to detect metabolites in these assays. Compounds were tested at single concentrations (typically 10 μM) and data were expressed as percent of control inhibition.

Data set [6] concerns the target CYP2C9 (Homo sapiens, UniProt P11712). Description: CYP inhibition CYP2C9 (CEREP). The data set is classed as in vitro ADME. The following applies: single concentration (typically 10 μM). As for the experimental part:
as §1, §3

Data set [7] has as its target CYP2C19 (Homo sapiens, UniProt P33261). Description: CYP inhibition CYP2C19 (CEREP). The data set is classed as in vitro ADME. Particulars: single concentration (typically 10 μM). The procedure:
as §1, §3

The target in data set [8] is CYP2D6 (Homo sapiens, UniProt P10635). Description: CYP inhibition CYP2D6 (CEREP). The data set is classed as in vitro ADME. The following applies: single concentration (typically 10 μM). The procedure: as §1, §3
Chain of CYP2D6 (P10635 whole entry): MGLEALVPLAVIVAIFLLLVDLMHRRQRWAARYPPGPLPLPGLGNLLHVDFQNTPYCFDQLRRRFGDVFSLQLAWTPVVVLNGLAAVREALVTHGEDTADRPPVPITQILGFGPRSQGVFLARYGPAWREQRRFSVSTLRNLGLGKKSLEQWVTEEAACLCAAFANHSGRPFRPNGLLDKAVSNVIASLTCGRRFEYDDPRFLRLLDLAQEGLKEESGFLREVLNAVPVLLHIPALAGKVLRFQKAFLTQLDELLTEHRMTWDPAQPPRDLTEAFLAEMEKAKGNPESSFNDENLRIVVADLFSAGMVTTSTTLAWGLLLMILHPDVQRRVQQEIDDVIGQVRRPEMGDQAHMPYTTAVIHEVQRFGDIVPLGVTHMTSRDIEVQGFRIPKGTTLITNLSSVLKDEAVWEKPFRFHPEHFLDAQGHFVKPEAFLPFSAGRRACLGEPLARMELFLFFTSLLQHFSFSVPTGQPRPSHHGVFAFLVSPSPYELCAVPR
For data set [9], the target named is CYP3A4 (Homo sapiens, UniProt P08684). The data set can be described thus: CYP inhibition CYP3A4 (CEREP). The data set is classed as in vitro ADME. The following applies: single concentration (typically 10 μM). As for the experimental part: as §1, §3
Chain of CYP3A4 (P08684 whole entry): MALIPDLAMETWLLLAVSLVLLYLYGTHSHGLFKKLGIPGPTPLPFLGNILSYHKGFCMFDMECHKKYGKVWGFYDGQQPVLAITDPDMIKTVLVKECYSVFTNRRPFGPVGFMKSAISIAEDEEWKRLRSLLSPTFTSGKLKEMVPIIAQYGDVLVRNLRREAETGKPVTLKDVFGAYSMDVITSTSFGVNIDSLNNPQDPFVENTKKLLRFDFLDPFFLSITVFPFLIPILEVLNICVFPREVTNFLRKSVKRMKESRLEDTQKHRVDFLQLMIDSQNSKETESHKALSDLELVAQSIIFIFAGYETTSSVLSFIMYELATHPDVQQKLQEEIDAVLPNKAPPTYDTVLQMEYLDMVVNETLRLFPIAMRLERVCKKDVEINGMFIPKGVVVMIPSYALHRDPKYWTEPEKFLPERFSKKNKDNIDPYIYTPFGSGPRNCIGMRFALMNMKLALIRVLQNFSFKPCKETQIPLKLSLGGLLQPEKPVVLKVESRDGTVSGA
Data set [10] concerns MOG-induced EAE mice. The data set can be described thus: MOG-induced EAE in mice, clinical score. In kind it is in vivo. The procedure:
8-10 week old, male C57BL/6 mice were purchased from Janvier Lab (St Berthevin, France) and housed in a specific pathogen free (SPF) animal facility for one week before the start of the studies. Peptide antigen MOG35-55 (Myelin Oligodendrocyte Glycoprotein) ([…], SEQ ID NO:1, Polypeptide group, France) was dissolved in PBS and emulsified with an equal volume of Complete Freund's Adjuvant (CFA) containing 5 mg/mL of mycobacteria and administrated by subcutaneous injection at the dorsal flanks on day 0 at 200 μg/mouse. To ensure induction of reliable EAE, 200 ng of Bordetella pertussis toxin (Sigma) was given via intraperitoneal injection at day 0 and 2 (Cua, Sherlock et al. 2003; Zhang, Gran et al. 2003). Animals were treated with drug beginning 2 days before peptide injection. Animals were randomized into groups for treatment by weight, so that the average weight of each group was similar. The groups were segregated by cage. Compounds according to the invention were suspended in Carboxymethyl Cellulose (CMC) 1% (Sigma) and Tween80 0.1% (Sigma) by sonication and animals were dosed daily by gavage with 10 mL/kg body weight. The daily dose of Cpd. 1 was 30 mg/kg and vidofludimus (reference compound) at 60 mg/kg in protocol 1 to assess IL-17 A and IL-17F secretion from splenocytes ex vivo. In protocol 2, mice were treated with Cpd. 1 at 3 and 10 mg/Kg or T4 compound at 1 and 10 mg/kg daily by gavage to assess the clinical score. Clinical assessment of EAE was performed daily according to the following criteria: 0) no disease, 1) limp tail, 2) weak/partially paralyzed hind legs, 3) completely paralyzed hind legs, 4) complete hind and partial front leg paralysis, and 5) complete paralysis/death. For Cytokine quantifications, mice were euthanized 20 days after EAE induction. Spleen-isolated cells were collected and adjusted to 2×10^6 cells/mL. Cells were cultured in complete RPMI medium (RPMI supplemented with 10% of fetal calf serum, 1% glutamine, and 1% penicillin/streptomycin). Spleen cells were stimulated with MOG (20 μg/mL) (Polypeptide group, France). Cytokine levels were evaluated 48 h later by ELISA (R&D Systems Europe) or HTRF (CisBio, France) in culture supernatants using IL-17A and IL-17-F according to the manufacturer's protocols. The statistical significance was based on Student's t test (p<0.05, unpaired test).

Data set [11] concerns psoriasis model. Particulars: administered by injection; cited from earlier work.

One may read the inhibition as the drop in the measured response relative to a control, in per cent.

Chain of CYP2C9 (P11712 whole entry): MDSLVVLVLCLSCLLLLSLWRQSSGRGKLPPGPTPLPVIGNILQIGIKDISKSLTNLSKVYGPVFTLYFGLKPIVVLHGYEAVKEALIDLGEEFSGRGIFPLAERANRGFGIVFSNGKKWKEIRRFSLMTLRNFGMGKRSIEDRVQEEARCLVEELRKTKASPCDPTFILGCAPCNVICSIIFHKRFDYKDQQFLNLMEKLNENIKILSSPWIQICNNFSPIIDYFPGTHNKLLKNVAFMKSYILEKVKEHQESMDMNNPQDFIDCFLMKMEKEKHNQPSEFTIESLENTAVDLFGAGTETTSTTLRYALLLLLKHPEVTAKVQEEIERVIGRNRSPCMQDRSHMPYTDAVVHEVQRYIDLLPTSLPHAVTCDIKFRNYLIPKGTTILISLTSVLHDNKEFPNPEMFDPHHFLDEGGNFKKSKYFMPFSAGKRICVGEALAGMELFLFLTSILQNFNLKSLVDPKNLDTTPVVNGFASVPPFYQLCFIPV
Chain of CYP2C19 (P33261 whole entry): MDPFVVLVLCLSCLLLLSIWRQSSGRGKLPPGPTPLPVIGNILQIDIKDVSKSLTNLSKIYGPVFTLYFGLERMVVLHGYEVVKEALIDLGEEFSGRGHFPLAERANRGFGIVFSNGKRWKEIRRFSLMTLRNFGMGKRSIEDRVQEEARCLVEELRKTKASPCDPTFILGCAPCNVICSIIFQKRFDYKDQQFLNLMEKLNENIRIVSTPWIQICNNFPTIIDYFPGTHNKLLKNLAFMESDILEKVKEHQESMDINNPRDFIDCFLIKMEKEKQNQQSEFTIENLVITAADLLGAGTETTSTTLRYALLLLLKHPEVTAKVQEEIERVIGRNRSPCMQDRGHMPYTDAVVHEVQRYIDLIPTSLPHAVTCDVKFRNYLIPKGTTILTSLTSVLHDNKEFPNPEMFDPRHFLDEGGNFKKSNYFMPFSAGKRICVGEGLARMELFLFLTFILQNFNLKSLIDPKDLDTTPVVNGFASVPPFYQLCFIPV

Turning to “Ustekinumab: anti-p40 monoclonal antibody that targets Th17 and Th1 through IL-23 and IL-12”, in data set [1], the “clinical efficacy in refractory Crohn diseased patients” value is recorded as “clinical (phase IIb) efficacy”.
In the case of `CC(=O)Nc1nc(C)c(S(=O)(=O)Nc2ccc(C(O)(C(F)(F)F)C(F)(F)F)cc2)s1` [SR1001], the “efficacy in multiple sclerosis model” value in data set [2] was “efficacious”.
As for `Cc1ccc(C(NC(=O)Cc2ccc3oc(C(O)c4c(C)noc4C)cc3c2)c2ccccc2)c(C)c1` (single isomer, unassigned) [Cpd. T-4, 2-(2-(hydroxy(3,5-dimethylisoxazol-4-yl)methyl)benzofuran-5-yl)-N-((2,4-dimethylphenyl)(phenyl)methyl)acetamide, reference compound], the “Human microsomes (% Cpd. remaining at 60 min)” value in [3] is 0%. Also, the “Mouse microsomes (% Cpd. remaining at 60 min)” value in data set [4] worked out at 0%. Further, the “CYP 1A2 (% inhibition of Control)” value in data set [5] is −3%. The inhibition at 10 µM in [6] (human, recombinant CYP2C9, human recombinant CYP, read-out: CYP 2C9 (% inhibition of Control)) was 73%; in data set [7] (human, recombinant CYP2C19, probe 3-cyano-7-ethoxycoumarin, read-out: CYP 2C19 (% inhibition of Control)), 85%; in [8] (human, recombinant CYP2D6, human recombinant CYP, read-out: CYP 2D6 (% inhibition of Control)), 31%; in data set [9] (human, recombinant CYP3A4, probe 7-benzyloxy-4-trifluoromethylcoumarin, read-out: CYP 3A4 (% inhibition of Control)), 82%. Besides, the EAE clinical score entry in [10] (daily by gavage, Cpd. 1 at 3 and 10 mg/Kg, T4 compound at 1 and 10 mg/kg) is “wasn't effective”.
Take `Cc1ccc([C@@H](NC(=O)Cc2ccc3oc([C@@H](O)c4c(C)noc4C)cc3c2)c2ccccc2)c(C)c1` [TMP778]: the “efficacy in psoriasis model” value in data set [11] is “efficacious”.
With `Cc1ccc(C(NC(=O)Cc2ccc3oc(C(O)c4c(C)noc4C)cc3c2)c2ccccc2)c(C)c1` (single isomer, unassigned) [Cpd. T-3, 2-(2-(hydroxy(3,5-dimethylisoxazol-4-yl)methyl)benzofuran-5-yl)-N-((2,4-dimethylphenyl)(phenyl)methyl)acetamide, reference compound], in data set [3], the “Human microsomes (% Cpd. remaining at 60 min)” value is listed as 0%. The “Mouse microsomes (% Cpd. remaining at 60 min)” value in data set [4] was 0%. In addition, the “CYP 1A2 (% inhibition of Control)” value in [5] is −5%. Also, the “CYP 2C9 (% inhibition of Control)” value in data set [6] (human recombinant CYP) is reported as 75%. Also, in data set [7] (human recombinant CYP), the “CYP 2C19 (% inhibition of Control)” value is reported as 92%. The “CYP 2D6 (% inhibition of Control)” value in [8] (human recombinant CYP) turned out to be 19%. Further, in data set [9] (human recombinant CYP), the “CYP 3A4 (% inhibition of Control)” value is recorded as 93%.
In the case of `Cc1ccc(C(NC(=O)Cc2ccc3oc(C(O)c4c(C)noc4C)cc3c2)c2ccccc2)c(C)c1` (centres unmarked) [compound T, 2-(2-(hydroxy(3,5-dimethylisoxazol-4-yl)methyl)benzofuran-5-yl)-N-((2,4-dimethylphenyl)(phenyl)methyl)acetamide, reference compound], the “onset of EAE” value in [10] (administered p/os (orally) for 20 days) is listed as “ineffective”. Further, in data set [11], the “efficacy in psoriasis model” value was “efficacious”.
